Results on 6 compounds are retold here after patent US20100197679A1, “COMPOUNDS” (Glaxo Group Limited, priority 2007, published 2010).

Structures can show the parent of a compound that is named as a salt. Where two headings read alike, the source gives them in different places.

Test [1] relates to Mycobacterium tuberculosis H37Rv. In words: Mycobacterium tuberculosis H37Rv Inhibition Assay (MIC, resazurin fluorescence). Format: cell-based. Particulars: ATCC 25618 / H37Rv. On the technique in general: The colour change of resazurin is a common sign of viable cells or microbes.
A short description of test [2]: Whole-cell antimicrobial activity assay, broth microdilution (CLSI M7-A7), MIC. Format: cell-based. Particulars: two-fold dilutions 0.016 to 16 mcg/mL, at least one of the listed Gram-positive/Gram-negative organisms, at least one exemplified salt or free base form, read-out: MIC against at least one of the organisms listed. As for the experimental part:
Whole-cell antimicrobial activity was determined by broth microdilution using the Clinical Laboratory Standards Institute (CLSI) recommended procedure, Document M7-A7, “Methods for Dilution Susceptibility Tests for Bacteria that Grow Aerobically”. The compounds were tested in serial two-fold dilutions ranging from 0.016 to 16 mcg/mL.
The minimum inhibitory concentration (MIC) was determined as the lowest concentration of compound that inhibited visible growth. A mirror reader was used to assist in determining the MIC endpoint.
Compounds were evaluated against Gram-positive organisms, including Staphylococcus aureus, Streptococcus pneumoniae, Streptococcus pyogenes, Enterococcus faecalis and Enterococcus faecium.
In addition, compounds were evaluated against Gram-negative organisms including Haemophilus influenzae, Moraxella catarrhalis, Escherichia coli, Pseudomonas aeruginosa, Proteus mirabilis, Enterobacter cloacae, Enterobacter aerogenes, Klebsiella pneumoniae, Acinetobacter baumanii and Stenotrophomonas maltophilia.
On the technique in general: In broth dilution the organism is exposed to a series of concentrations in liquid medium.

The mark [3] stands for this setting: H37Rv strain (ATCC25618), Middlebrook 7H9+ADC, six days at 37° C., resazurin read after 48 hours, read-out: MIC value.

`COc1ccc2ncc(=O)n(-c3cnc4c(c3)C[C@@H](O)[C@H](NCc3cc5c(cn3)OCCO5)C4)c2n1` (racemic) [Example 18, 4-{(6R/S,7R/S)-7-[(2,3-Dihydro[1,4]dioxino[2,3-c]pyridin-7-ylmethyl)amino]-6-hydroxy-5,6,7,8-tetrahydro-3-quinolinyl}-6-(methyloxy)pyrido[2,3-b]pyrazin-3(4H)-one dihydrochloride]: in test [1] (read-out: MIC value, H37Rv strain (ATCC25618), Middlebrook 7H9+ADC, six days at 37° C., resazurin read after 48 hours), the MIC (commonly the smallest concentration in the dilution series that meets the test's criterion for growth inhibition) is no more than 1.1 µg/mL.
In the case of `COc1ccc2ncc(=O)n(-c3cnc4c(c3)C[C@@H](O)[C@@H](NCc3cc5c(nn3)OCCO5)C4)c2n1` (relative stereo) [Example 13, Cis-4-{7-[(6,7-Dihydro[1,4]dioxino[2,3-c]pyridazin-3-ylmethyl)amino]-6-hydroxy-5,6,7,8-tetrahydro-3-quinolinyl}-6-(methyloxy)pyrido[2,3-b]pyrazin-3(4H)-one dihydrochloride], the MIC in test [1] (setting [3]) is no more than 1.1 µg/mL.
On the same count and under the same terms, the same measure for `COc1ccc2ncc(=O)n(-c3cnc4c(c3)C[C@@H](O)[C@@H](NCc3cc5c(cn3)OCCO5)C4)c2n1` (relative stereo) [Example 14, Cis-4-{7-[(2,3-Dihydro[1,4]dioxino[2,3-c]pyridin-7-ylmethyl)amino]-6-hydroxy-5,6,7,8-tetrahydro-3-quinolinyl}-6-(methyloxy)pyrido[2,3-b]pyrazin-3(4H)-one]: no more than 1.1 µg/mL.
On to `COc1ccc2ncc(=O)n(-c3cnc4c(c3)CCC(NCc3cc5c(nn3)OCCO5)C4)c2n1` (stereo not drawn) [Example 7, 4-{7-[(6,7-Dihydro[1,4]dioxino[2,3-c]pyridazin-3-ylmethyl)amino]-5,6,7,8-tetrahydro-3-quinolinyl}-6-(methyloxy)pyrido[2,3-b]pyrazin-3(4H)-one hydrochloride], for which the MIC in test [1] (setting [3]) was no more than 1.1 µg/mL.
`COc1ccc2ncc(=O)n(-c3cnc4c(c3)CCC(NCc3cc5c(cn3)OCCO5)C4)c2n1` (stereo not drawn) [Example 8, 4-{7-[(2,3-Dihydro[1,4]dioxino[2,3-c]pyridin-7-ylmethyl)amino]-5,6,7,8-tetrahydro-3-quinolinyl}-6-(methyloxy)pyrido[2,3-b]pyrazin-3(4H)-one hydrochloride]: the minimal inhibitory concentration (MIC) in test [1] (setting [3]) is no more than 1.1 µg/mL.
For `COc1ccc2ncc(=O)n(-c3cnc4c(c3)OCC(NCc3cc5c(cn3)OCCO5)C4)c2n1` (stereo not drawn) [Example 17, 4-{3-[(2,3-Dihydro[1,4]dioxino[2,3-c]pyridin-7-ylmethyl)amino]-3,4-dihydro-2H-pyrano[3,2-b]pyridin-7-yl}-6-(methyloxy)pyrido[2,3-b]pyrazin-3(4H)-one fumarate], the minimum inhibitory concentration (MIC) in test [2] was 16 µg/mL.
